This experiment addresses T1, human P2X4 (Homo sapiens, UniProt Q99571).
T1 sequence (Q99571 1-388): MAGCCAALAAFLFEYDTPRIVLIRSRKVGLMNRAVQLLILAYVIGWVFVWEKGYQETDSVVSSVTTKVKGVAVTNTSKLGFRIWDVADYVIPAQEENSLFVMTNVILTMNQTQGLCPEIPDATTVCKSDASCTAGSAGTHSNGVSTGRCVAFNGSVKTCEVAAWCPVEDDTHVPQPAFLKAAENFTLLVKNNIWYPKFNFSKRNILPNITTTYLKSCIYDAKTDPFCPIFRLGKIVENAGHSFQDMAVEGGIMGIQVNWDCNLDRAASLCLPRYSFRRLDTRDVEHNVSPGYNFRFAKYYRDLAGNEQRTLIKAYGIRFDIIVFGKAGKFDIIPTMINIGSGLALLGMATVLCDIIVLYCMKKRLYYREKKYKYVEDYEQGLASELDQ
The experiment can be described thus: Human P2X4 HEK Cell FLIPR Assay. As to conditions: agonist Bz-ATP at EC80; for Emax: HEK293, HEK293 cells, percentage of maximal inhibition, read-out: Human P2X4 HEK Cells (FLIPR Assay) avg Efficacy [%]; for IC50: HEK293 cells, individual values listed where some fall outside detection range. Format: cell-based. Summed up:
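Calcium flux read by FLIPR for 120 sec after Bz-ATP challenge at EC80 (established each assay day), following 30 min room-temperature compound preincubation in dye-loaded stable human P2X4 HEK293 cells. Peak RFU over basal normalized to agonist control; IC50, maximal inhibition and Hill coefficient from triplicate means.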

Values joined by “and” are separate entries in the source; they are usually repeats but may differ in a detail not shown here. Identical values can stand only once.

As usually defined, the IC50 is the concentration that inhibits the measured activity by half. Low readings indicate greater potency, high ones weaker potency. Consider `Cc1cc(-c2ccc(NC(=O)Cc3ccccc3Cl)cc2S(N)(=O)=O)sn1` [Example 424, 2-(2-Chlorophenyl)-N-[4-(3-methyl-1,2-thiazol-5-yl)-3-sulfamoylphenyl]acetamide], for which the Emax was found to be 88% and the IC50 turned out to be 29 nM.
For `Cc1csc(-c2ccc(NC(=O)Cc3ccccc3Cl)cc2S(N)(=O)=O)n1` [Example 425, 2-(2-Chlorophenyl)-N-[4-(4-methyl-1,3-thiazol-2-yl)-3-sulfamoylphenyl]acetamide], in that order: 74% and 50 nM.
Regarding `NS(=O)(=O)c1cc(NC(=O)Cc2ccccc2Cl)ccc1-c1cnsc1` [Example 426, 2-(2-Chlorophenyl)-N-[3-sulfamoyl-4-(1,2-thiazol-4-yl)phenyl]acetamide], the Emax was 86% and the IC50 turned out to be 24 nM.
For `NS(=O)(=O)c1cc(NC(=O)Cc2ccccc2Cl)ccc1-c1nccs1` [Example 427, 2-(2-Chlorophenyl)-N-[3-sulfamoyl-4-(1,3-thiazol-2-yl)phenyl]acetamide], in that order: 65% and 72 nM.
Consider `N#Cc1csc(-c2ccc(NC(=O)Cc3ccccc3Cl)cc2S(N)(=O)=O)n1` [Example 428, 2-(2-Chlorophenyl)-N-[4-(4-cyano-1,3-thiazol-2-yl)-3-sulfamoylphenyl]acetamide], for which the Emax is 57% and the IC50 was 27 nM.
Consider `NS(=O)(=O)c1cc(NC(=O)Cc2ccccc2Cl)ccc1-c1cnc(C(F)F)s1` [Example 429, 2-(2-Chlorophenyl)-N-{4-[2-(difluoromethyl)-1,3-thiazol-5-yl]-3-sulfamoylphenyl}acetamide], for which the Emax is 91% and the 50% inhibitory concentration (IC50) came to 108 nM.
As to `NS(=O)(=O)c1cc(NC(=O)Cc2ccccc2Cl)ccc1-c1cnc(C2CC2)s1` [Example 430, 2-(2-Chlorophenyl)-N-[4-(2-cyclopropyl-1,3-thiazol-5-yl)-3-sulfamoylphenyl]acetamide], the Emax was 87% and the IC50 worked out at 86 nM.
For `NS(=O)(=O)c1cc(NC(=O)Cc2ccccc2Cl)ccc1-c1csc(C2CC2)n1` [Example 431, 2-(2-Chlorophenyl)-N-[4-(2-cyclopropyl-1,3-thiazol-4-yl)-3-sulfamoylphenyl]acetamide], in that order: 83% and 2880 nM.
On to `Cc1coc(-c2ccc(NC(=O)Cc3ccccc3Cl)cc2S(N)(=O)=O)n1` [Example 432, 2-(2-Chlorophenyl)-N-[4-(4-methyl-1,3-oxazol-2-yl)-3-sulfamoylphenyl]acetamide], for which the Emax was found to be 92% and the IC50 came to 597 nM.
For `NS(=O)(=O)c1cc(NC(=O)Cc2ccccc2Cl)ccc1-c1csc(C(F)(F)F)n1` [Example 433, 2-(2-Chlorophenyl)-N-{3-sulfamoyl-4-[2-(trifluoromethyl)-1,3-thiazol-4-yl]phenyl}acetamide], the Emax was determined as 28% and the IC50 was above 25000 nM.
`NS(=O)(=O)c1cc(NC(=O)Cc2ccccc2Cl)ccc1-c1nc(C(F)(F)F)cs1` [Example 434, 2-(2-Chlorophenyl)-N-{3-sulfamoyl-4-[4-(trifluoromethyl)-1,3-thiazol-2-yl]phenyl}acetamide]: the Emax amounted to 50%; the IC50 is 17800 nM and > 25000 nM.
For `CC(C)(O)c1ncc(-c2ccc(NC(=O)Cc3ccccc3Cl)cc2S(N)(=O)=O)s1` [Example 435, 2-(2-Chlorophenyl)-N-{4-[2-(2-hydroxypropan-2-yl)-1,3-thiazol-5-yl]-3-sulfamoylphenyl}acetamide], the Emax turned out to be 77% and the 50% inhibitory concentration (IC50) is 588 nM.
For `CC(C)(O)c1nc(-c2ccc(NC(=O)Cc3ccccc3Cl)cc2S(N)(=O)=O)cs1` [Example 436, 2-(2-Chlorophenyl)-N-{4-[2-(2-hydroxypropan-2-yl)-1,3-thiazol-4-yl]-3-sulfamoylphenyl}acetamide], in that order: 56% and 12500 nM.
For `NS(=O)(=O)c1cc(NC(=O)Cc2ccccc2Cl)ccc1-c1cscn1` [Example 437, 2-(2-Chlorophenyl)-N-[3-sulfamoyl-4-(1,3-thiazol-4-yl)phenyl]acetamide], the Emax turned out to be 53% and the IC50 worked out at 39 nM.
Take `NS(=O)(=O)c1cc(NC(=O)Cc2ccccc2Cl)ccc1-c1cc(C2CC2)on1` [Example 438, 2-(2-Chlorophenyl)-N-[4-(5-cyclopropyl-1,2-oxazol-3-yl)-3-sulfamoylphenyl]acetamide]: the Emax came to 75% and the IC50 is 18 nM.
Take `NS(=O)(=O)c1cc(NC(=O)Cc2ccccc2Cl)ccc1-c1cnc(C2CC2)o1` [Example 439, 2-(2-Chlorophenyl)-N-[4-(2-cyclopropyl-1,3-oxazol-5-yl)-3-sulfamoylphenyl]acetamide]: the Emax worked out at 94% and the 50% inhibitory concentration (IC50) was 4 nM.
As to `NS(=O)(=O)c1cc(NC(=O)Cc2ccccc2Cl)ccc1-n1cc(C(=O)N2CC(F)(F)C2)cn1` [Example 440, 2-(2-Chlorophenyl)-N-(4-{4-[(3,3-difluoroazetidin-1-yl)carbonyl]-1H-pyrazol-1-yl}-3-sulfamoylphenyl)acetamide], the Emax was determined as 96% and the 50% inhibitory concentration (IC50) came to 112 nM.
As for `NS(=O)(=O)c1cc(NC(=O)Cc2ccccc2Cl)ccc1-n1cc(C(=O)N2CCC2)cn1` [Example 441, N-{4-[4-(Azetidin-1-ylcarbonyl)-1H-pyrazol-1-yl]-3-sulfamoylphenyl}-2-(2-chlorophenyl)acetamide], the Emax is 91% and the IC50 turned out to be 185 nM.
For `NS(=O)(=O)c1cc(NC(=O)Cc2ccccc2Cl)ccc1-n1cc(C(=O)N2CCCC2)cn1` [Example 442, 2-(2-Chlorophenyl)-N-{4-[4-(pyrrolidin-1-ylcarbonyl)-1H-pyrazol-1-yl]-3-sulfamoylphenyl}acetamide], in that order: 89% and 181 nM.
As to `NS(=O)(=O)c1cc(NC(=O)Cc2ccccc2Cl)ccc1-n1cc(C(=O)N2CCC(F)(F)C2)cn1` [Example 443, 2-(2-Chlorophenyl)-N-(4-{4-[(3,3-difluoropyrrolidin-1-yl)carbonyl]-1H-pyrazol-1-yl}-3-sulfamoylphenyl)acetamide], the Emax turned out to be 84% and the IC50 amounted to 122 nM.
Take `NS(=O)(=O)c1cc(NC(=O)Cc2ccc(Cl)cc2)ccc1-c1cncc(C(F)(F)F)c1` [Example 444, 2-(4-Chlorophenyl)-N-{3-sulfamoyl-4-[5-(trifluoromethyl)pyridin-3-yl]phenyl}acetamide]: the Emax was 77% and the IC50 worked out at 635 nM.
In the case of `NS(=O)(=O)c1cc(NC(=O)Cc2c(F)cccc2Cl)ccc1-c1cncc(C(F)(F)F)c1` [Example 445, 2-(2-Chloro-6-fluorophenyl)-N-{3-sulfamoyl-4-[5-(trifluoromethyl)pyridin-3-yl]phenyl}acetamide], the Emax came out at 71% and the IC50 was found to be 60 nM.
As for `NS(=O)(=O)c1cc(NC(=O)Cc2ccc(C(F)(F)F)cc2)ccc1-c1cncc(C(F)(F)F)c1` [Example 446, N-{3-Sulfamoyl-4-[5-(trifluoromethyl)pyridin-3-yl]phenyl}-2-[4-(trifluoromethyl)phenyl]acetamide], the Emax was 76% and the IC50 was found to be 621 nM.
As to `NS(=O)(=O)c1cc(NC(=O)Cc2cccc(F)c2)ccc1-c1cncc(C(F)(F)F)c1` [Example 447, 2-(3-Fluorophenyl)-N-{3-sulfamoyl-4-[5-(trifluoromethyl)pyridin-3-yl]phenyl}acetamide], the Emax was 68% and the 50% inhibitory concentration (IC50) is 1020 nM.
As for `NS(=O)(=O)c1cc(NC(=O)Cc2ccc(Cl)cc2Cl)ccc1-c1cncc(C(F)(F)F)c1` [Example 448, 2-(2,4-Dichlorophenyl)-N-{3-sulfamoyl-4-[5-(trifluoromethyl)pyridin-3-yl]phenyl}acetamide], the Emax was determined as 63% and the IC50 was found to be 472 nM.
On to `NS(=O)(=O)c1cc(NC(=O)Cc2ccccc2Br)ccc1-c1cncc(C(F)(F)F)c1` [Example 449, 2-(2-Bromophenyl)-N-{3-sulfamoyl-4-[5-(trifluoromethyl)pyridin-3-yl]phenyl}acetamide], for which the Emax was 73% and the 50% inhibitory concentration (IC50) worked out at 135 nM.
For `NS(=O)(=O)c1cc(NC(=O)Cc2ccc(F)cc2F)ccc1-c1cncc(C(F)(F)F)c1` [Example 450, 2-(2,4-Difluorophenyl)-N-{3-sulfamoyl-4-[5-(trifluoromethyl)pyridin-3-yl]phenyl}acetamide], in that order: 72% and 148 nM.
Take `NS(=O)(=O)c1cc(NC(=O)Cc2ccc(F)c(F)c2)ccc1-c1cncc(C(F)(F)F)c1` [Example 451, 2-(3,4-Difluorophenyl)-N-{3-sulfamoyl-4-[5-(trifluoromethyl)pyridin-3-yl]phenyl}acetamide]: the Emax stood at 86% and the 50% inhibitory concentration (IC50) amounted to 244 nM.
On to `NS(=O)(=O)c1cc(NC(=O)Cc2cc(F)cc(F)c2)ccc1-c1cncc(C(F)(F)F)c1` [Example 452, 2-(3,5-Difluorophenyl)-N-{3-sulfamoyl-4-[5-(trifluoromethyl)pyridin-3-yl]phenyl}acetamide], for which the Emax worked out at 65% and the IC50 came to 76 nM.

The values are drawn from patent US11524938B2, “Aromatic sulfonamide derivatives” (Bayer Pharma Aktiengesellschaft, priority 2016, dated 2022).
